In patent US9365540B2, “Benzimidazole derivatives as MCH receptor antagonists” (Takeda Pharmaceutical Company Limited, priority 2012, dated 2016) one finds inhibition data, which are given here for 26 compounds.

Test [1] concerns the target T1, human MCH receptor 1 (MCHR1) (Homo sapiens, UniProt Q99705).
T1 construct: expressed in transfected cells; host or cells: CHO cell clone 57 (membrane fraction)
The test is described as follows: human MCH receptor 1 (MCHR1) competitive binding assay with [125I]-MCH(4-19). The settings on record: test compound 0.1 μM, human MCHR1-expressing CHO cell membrane fraction, read-out: Binding inhibition rate % (0.1 μM). A digest of the protocol: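 Membranes from CHO cells expressing human MCHR1 incubated with [125I]-MCH(4-19) and test compound in 20 mM Tris-HCl pH 7.5/5 mM EDTA with protease inhibitors, 1 hr at room temperature. Bound radioactivity collected on PEI-treated GF/C filters; % inhibition at 0.1 μM compound, nonspecific binding set with cold MCH(1-19).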

In another test the target is T2, human MCHR1 (Homo sapiens, UniProt Q99705).
T2 construct: expressed in transfected cells; host or cells: CHO dhfr- cells, clone #4
The test can be described thus: MCH receptor 1 antagonistic activity, Ca2+ mobilization assay. In kind it is cell-based. The settings on record: CHO, test compound 0.1 μM; human MCHR1-expressing CHO cells (clone #4); ligand MCH(4-19) 2 nM; read-out: Inhibitory rate % (0.1 μM). Here is the method: Measurement of MCH Receptor 1 Antagonistic Activity of Test Compound Using Ca^2+ Mobilization Assay Using an expression vector plasmid introduced with human MCHR1 gene for expression in animal cells, human MCHR1 gene was introduced into CHO cells (CHO dhfr^−) by Lipofectamine LTX (Invitrogen). The cells were cultured in selection MEMα medium [445 mL of MEMα medium without nucleic acid and added with 5 mL of Penicillin-Streptomycin (Invitrogen) and 50 mL of dialyzed fetal bovine serum]. Colony 24 clones grown in the selection medium, which were human MCHR1 gene-expressing CHO cell candidates, were selected. […] In the following test, this human MCHR1-expressing CHO cell (clone #4) was used. An integrated dispensing function fluorometer (CellLux, PerkinElmer) was used for Ca^2+ mobilization assay. […] The medium was removed, and the cells were washed with phosphate buffered saline (PBS). […] The plate was set on a plate reader. […] The inhibition rates (%) of test compounds (0.1 μM) as antagonist activity measured using human MCHR1-expressing CHO cells (clone #4) are shown in the following Table 3.

SMILES strings stand for the structures.

T2 sequence (Q99705 whole entry): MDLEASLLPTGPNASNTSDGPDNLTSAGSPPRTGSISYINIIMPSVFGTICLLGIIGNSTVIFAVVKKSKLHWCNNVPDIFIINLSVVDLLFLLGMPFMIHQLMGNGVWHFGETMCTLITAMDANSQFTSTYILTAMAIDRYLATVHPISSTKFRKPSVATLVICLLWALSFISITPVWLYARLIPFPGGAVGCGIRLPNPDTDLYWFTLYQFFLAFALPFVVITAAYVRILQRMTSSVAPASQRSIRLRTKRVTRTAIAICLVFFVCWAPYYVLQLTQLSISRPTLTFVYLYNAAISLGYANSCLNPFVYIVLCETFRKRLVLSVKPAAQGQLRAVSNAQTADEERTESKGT
T1 sequence (Q99705 whole entry): as above

Consider `Cn1c(C2CC2)nc2ccc(-n3ccc(OCc4cccc(F)c4)cc3=O)cc21` [Example 72, 1-(2-Cyclopropyl-1-methyl-1H-benzimidazol-6-yl)-4-((3-fluorobenzyl)oxy)pyridin-2(1H)-one], for which the inhibition at 0.1 µM in test [1] amounted to 80%; at human MCHR1 it was 58%.
In the same order, the values of `Cn1c(C2CC2)nc2ccc(-n3ccc(OCc4ccsc4)cc3=O)cc21` [Example 75, 1-(2-Cyclopropyl-1-methyl-1H-benzimidazol-6-yl)-4-(3-thienylmethoxy)pyridin-2(1H)-one] are 84% and 80%.
Regarding `Cc1ncoc1-c1nc2ccc(-n3ccc(OCc4ccc(F)cc4)cc3=O)cc2n1C` [Example 89, 4-((4-Fluorobenzyl)oxy)-1-(1-methyl-2-(4-methyl-1,3-oxazol-5-yl)-1H-benzimidazol-6-yl)pyridin-2(1H)-one], the inhibition at 0.1 µM came to 73% in test [1] and 46% at human MCHR1.
In the same order, the values of `Cn1c(CC2CC2)nc2ccc(-n3ccc(OCc4ccc(Cl)cc4)cc3=O)cc21` [Example 91, 4-((4-Chlorobenzyl)oxy)-1-(2-(cyclopropylmethyl)-1-methyl-1H-benzimidazol-6-yl)pyridin-2(1H)-one] are 67% and 70%.
With `CCc1nc2ccc(-n3ccc(OCc4ccc(Cl)cc4)cc3=O)cc2n1C` [Example 102, 4-((4-Chlorobenzyl)oxy)-1-(2-ethyl-1-methyl-1H-benzimidazol-6-yl)pyridin-2(1H)-one], the results for the inhibition at 0.1 µM (in test [1]; on human MCHR1) were 75% and 97%, respectively.
In the same order, the values of `CCCc1nc2ccc(-n3ccc(OCc4ccc(Cl)cc4)cc3=O)cc2n1C` [Example 103, 4-((4-Chlorobenzyl)oxy)-1-(1-methyl-2-propyl-1H-benzimidazol-6-yl)pyridin-2(1H)-one] are 78% and 63%.
In the same order, the values of `CC(=O)c1nc2ccc(-n3ccc(OCc4ccc(Cl)cc4)cc3=O)cc2n1C` [Example 104, 1-(2-Acetyl-1-methyl-1H-benzimidazol-6-yl)-4-((4-chlorobenzyl)oxy)pyridin-2(1H)-one] are 60% and 61%.
In the same order, the values of `Cc1nc2ccc(-n3ccc(OCc4ccc(Cl)cc4)cc3=O)cc2n1C` [Example 107, 4-((4-Chlorobenzyl)oxy)-1-(1,2-dimethyl-1H-benzimidazol-6-yl)pyridin-2(1H)-one] are 60% and 101%.
For `Cn1c(C2CC2)nc2ccc(-n3ccc(OCc4cccs4)cc3=O)cc21` [Example 124, 1-(2-Cyclopropyl-1-methyl-1H-benzimidazol-6-yl)-4-(2-thienylmethoxy)pyridin-2(1H)-one], the inhibition at 0.1 µM in test [1] was 58%; on human MCHR1, 80%.
In the same order, the values of `Cn1c(C2CC2)nc2ccc(-n3ccc(OCc4cccc(Cl)c4)cc3=O)cc21` [Example 127, 4-((3-Chlorobenzyl)oxy)-1-(2-cyclopropyl-1-methyl-1H-benzimidazol-6-yl)pyridin-2(1H)-one] are 80% and 77%.
In the same order, the values of `Cc1c(C2CC2)nc2ccc(-n3ccc(OCc4cccc(F)c4)cc3=O)cn12` [Example 130, 1-(2-Cyclopropyl-3-methylimidazo[1,2-a]pyridin-6-yl)-4-((3-fluorobenzyl)oxy)pyridin-2(1H)-one] are 79% and 99%.
In the same order, the values of `Cc1c(C2CC2)nc2ccc(-n3ccc(OCc4cccs4)cc3=O)cn12` [Example 132, 1-(2-Cyclopropyl-3-methylimidazo[1,2-a]pyridin-6-yl)-4-(2-thienylmethoxy)pyridin-2(1H)-one] are 51% and 96%.
As to `Cc1c(C2CC2)nc2ccc(-n3ccc(OCc4ccsc4)cc3=O)cn12` [Example 133, 1-(2-Cyclopropyl-3-methylimidazo[1,2-a]pyridin-6-yl)-4-(3-thienylmethoxy)pyridin-2(1H)-one], the inhibition at 0.1 µM came to 79% in test [1] and 98% on human MCHR1.
In the same order, the values of `Cn1c(C2CC2)nc2ccc(-n3ccc(OCc4ccc(F)s4)cc3=O)cc21` [Example 157, 1-(2-Cyclopropyl-1-methyl-1H-benzimidazol-6-yl)-4-((5-fluorothiophen-2-yl)methoxy)pyridin-2(1H)-one] are 71% and 95%.
In the same order, the values of `Cn1c(C2CC2)nc2ccc(-n3ccc(OCc4ccc(C(F)(F)F)s4)cc3=O)cc21` [Example 159, 1-(2-Cyclopropyl-1-methyl-1H-benzimidazol-6-yl)-4-((5-(trifluoromethyl)thiophen-2-yl)methoxy)pyridin-2(1H)-one] are 87% and 107%.
In the same order, the values of `Cc1c(C2CC2)nc2ccc(-n3ccc(OCc4csc(Cl)c4)cc3=O)cn12` [Example 164, 4-((5-Chlorothiophen-3-yl)methoxy)-1-(2-cyclopropyl-3-methylimidazo[1,2-a]pyridin-6-yl)pyridin-2(1H)-one] are 92% and 102%.
`Cc1c(C2CC2)nc2ccc(-n3ccc(OCc4cc(Cl)cs4)cc3=O)cn12` [Example 168, 4-((4-Chlorothiophen-2-yl)methoxy)-1-(2-cyclopropyl-3-methylimidazo[1,2-a]pyridin-6-yl)pyridin-2(1H)-one]: the inhibition at 0.1 µM in test [1] amounted to 84%; on human MCHR1, 103%.
In the case of `Cc1c(C2CC2)nc2ccc(-n3ccc(COc4ccc(F)cc4)cc3=O)cn12` [Example 170, 1-(2-Cyclopropyl-3-methylimidazo[1,2-a]pyridin-6-yl)-4-((4-fluorophenoxy)methyl)pyridin-2(1H)-one], the inhibition at 0.1 µM amounted to 23% in test [1] and 62% on human MCHR1.
In the same order, the values of `Cc1c(C2CC2)nc2ccc(-n3ccc(OCc4csc(Br)c4)cc3=O)cn12` [Example 177, 4-((5-Bromo-3-thienyl)methoxy)-1-(2-cyclopropyl-3-methylimidazo[1,2-a]pyridin-6-yl)pyridin-2(1H)-one] are 97% and 97%.
In the same order, the values of `Cc1c(C2CC2)nc2ccc(-n3ccc(OCc4ccc(C(F)F)s4)cc3=O)cn12` [Example 178, 1-(2-Cyclopropyl-3-methylimidazo[1,2-a]pyridin-6-yl)-4-((5-(difluoromethyl)-2-thienyl)methoxy)pyridin-2(1H)-one] are 74% and 69%.
In the same order, the values of `Cc1c(C2CC2)nc2ccc(-n3ccc(OCc4csc(C(F)(F)F)n4)cc3=O)cn12` [Example 179, 1-(2-Cyclopropyl-3-methylimidazo[1,2-a]pyridin-6-yl)-4-((2-(trifluoromethyl)-1,3-thiazol-4-yl)methoxy)pyridin-2(1H)-one] are 64% and 94%.
Turning to `Cc1c(C2CC2)nc2ccc(-n3ccc(OCc4ccc(C(F)(F)F)o4)cc3=O)cn12` [Example 180, 1-(2-Cyclopropyl-3-methylimidazo[1,2-a]pyridin-6-yl)-4-((5-(trifluoromethyl)-2-furyl)methoxy)pyridin-2(1H)-one], the figures for the inhibition at 0.1 µM (in test [1]; on human MCHR1) were 64% and 99%, respectively.
Take `Cc1c(C2CC2)nc2ccc(-n3ccc(NCc4ccc(Cl)s4)cc3=O)cn12` [Example 181, 4-(((5-Chloro-2-thienyl)methyl)amino)-1-(2-cyclopropyl-3-methylimidazo[1,2-a]pyridin-6-yl)pyridin-2(1H)-one]: the inhibition at 0.1 µM turned out to be 57% in test [1] and 21% on human MCHR1.
With `Cc1c(C2CC2)nc2ccc(-n3ccc(OCc4csc(C(F)(F)F)c4)cc3=O)cn12` [Example 183, 1-(2-Cyclopropyl-3-methylimidazo[1,2-a]pyridin-6-yl)-4-((5-(trifluoromethyl)-3-thienyl)methoxy)pyridin-2(1H)-one], the inhibition at 0.1 µM is 91% in test [1] and 75% at human MCHR1.
In the same order, the values of `Cc1c(C2CC2)nc2ccc(-n3ccc(NCc4ccc(Cl)cc4)cc3=O)cn12` [Example 186, 4-((4-Chlorobenzyl)amino)-1-(2-cyclopropyl-3-methylimidazo[1,2-a]pyridin-6-yl)pyridin-2(1H)-one] are 25% and 74%.
In the same order, the values of `Cc1c(C2CC2)nc2ccc(-n3ccc(OCc4csc(Br)n4)cc3=O)cn12` [Example 189, 4-((2-Bromo-1,3-thiazol-4-yl)methoxy)-1-(2-cyclopropyl-3-methylimidazo[1,2-a]pyridin-6-yl)pyridin-2(1H)-one] are 86% and 100%.
